Measurements: PubChem BioAssay AID1845206 (Molecular Pharmacology Branch, DTP, NCI, 2023)
pIC50: −log10 of the molar value.

Test system: NCI-H1618 multicellular tumor spheroid viability
Assay: Anticancer human tumor NCI-H1618 cell line growth inhibition;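 further: spheroids exposed to agents for 7 days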
Conditions: for pIC50: curve of first compound; for viability, T/C: stronger effect = lower value
Summary of the method: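 Complex spheroids of malignant cells with endothelial cells and mesenchymal stem cells; agents alone or combined, from near clinical Cmax (or 10 microM if unknown) down in half-log steps, 0.25% DMSO final.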

Cc1cc(C)c(CNC(=O)c2cc(-c3ccc(CN4CCOCC4)cc3)cc3c2cnn3C2CCCC2)c(=O)[nH]1 + CC[C@@]1(O)C(=O)OCc2c1cc1n(c2=O)Cc2cc3c(CN(C)C)c(O)ccc3nc2-1
pIC50 (second compound 0.003 µM): < 5.00
pIC50 (second compound 0.00949 µM): > 7.50
pIC50 (second compound 0.03 µM): > 7.50
pIC50 (second compound 0.0949 µM): > 7.50
pIC50 (second compound 0.3 µM): > 7.50
viability, T/C (second compound 0.003 µM, first compound 0.0316 µM): 90.8%
viability, T/C (second compound 0.003 µM, first compound 0.1 µM): 94.2%
viability, T/C (second compound 0.003 µM, first compound 0.316 µM): 94.5%
viability, T/C (second compound 0.003 µM, first compound 1 µM): 88.5%
viability, T/C (second compound 0.003 µM, first compound 3.16 µM): 83.1%
viability, T/C (second compound 0.003 µM, first compound 10 µM): 76.2%
viability, T/C (second compound 0.00949 µM, first compound 0.0316 µM): 58.5%
viability, T/C (second compound 0.00949 µM, first compound 0.1 µM): 38.5%
viability, T/C (second compound 0.00949 µM, first compound 0.316 µM): 51%
viability, T/C (second compound 0.00949 µM, first compound 1 µM): 27.2%
viability, T/C (second compound 0.00949 µM, first compound 3.16 µM): 17.3%
viability, T/C (second compound 0.00949 µM, first compound 10 µM): 12.7%
viability, T/C (second compound 0.03 µM, first compound 0.0316 µM): 1.8%
viability, T/C (second compound 0.03 µM, first compound 0.1 µM): 1.58%
viability, T/C (second compound 0.03 µM, first compound 0.316 µM): 1.81%
viability, T/C (second compound 0.03 µM, first compound 1 µM): 1.82%
viability, T/C (second compound 0.03 µM, first compound 3.16 µM): 1.84%
viability, T/C (second compound 0.03 µM, first compound 10 µM): 18.6%
viability, T/C (second compound 0.0949 µM, first compound 0.0316 µM): 1.32%
viability, T/C (second compound 0.0949 µM, first compound 0.1 µM): 1.44%
viability, T/C (second compound 0.0949 µM, first compound 0.316 µM): 1.43%
viability, T/C (second compound 0.0949 µM, first compound 1 µM): 2.27%
viability, T/C (second compound 0.0949 µM, first compound 3.16 µM): 1.46%
viability, T/C (second compound 0.0949 µM, first compound 10 µM): 2.04%
viability, T/C (second compound 0.3 µM, first compound 0.0316 µM): 19.2%
viability, T/C (second compound 0.3 µM, first compound 0.1 µM): 1.25%
viability, T/C (second compound 0.3 µM, first compound 0.316 µM): 1.16%
viability, T/C (second compound 0.3 µM, first compound 1 µM): 1.34%
viability, T/C (second compound 0.3 µM, first compound 3.16 µM): 1.57%
viability, T/C (second compound 0.3 µM, first compound 10 µM): 19.7%

O=C(c1cc(Cc2n[nH]c(=O)c3ccccc23)ccc1F)N1CCN(C(=O)C2CC2)CC1 + COc1cc2c(cc1O)CCNC21CSC2c3c(OC(C)=O)c(C)c4c(c3C(COC1=O)N1C(O)C3Cc5cc(C)c(OC)c(O)c5C(C21)N3C)OCO4
pIC50 (second compound 30 pM): 5.24
pIC50 (second compound 94.9 pM): 5.74
pIC50 (second compound 0.0003 µM): > 7.02
pIC50 (second compound 0.000949 µM): > 7.02
pIC50 (second compound 0.003 µM): > 7.02
viability, T/C (second compound 30 pM, first compound 0.0949 µM): 103%
viability, T/C (second compound 30 pM, first compound 0.3 µM): 97.2%
viability, T/C (second compound 30 pM, first compound 0.949 µM): 98.2%
viability, T/C (second compound 30 pM, first compound 3 µM): 88.1%
viability, T/C (second compound 30 pM, first compound 9.49 µM): 19.8%
viability, T/C (second compound 30 pM, first compound 30 µM): 5.66%
viability, T/C (second compound 94.9 pM, first compound 0.0949 µM): 85.7%
viability, T/C (second compound 94.9 pM, first compound 0.3 µM): 76.1%
viability, T/C (second compound 94.9 pM, first compound 0.949 µM): 96.7%
viability, T/C (second compound 94.9 pM, first compound 3 µM): 22.7%
viability, T/C (second compound 94.9 pM, first compound 9.49 µM): 11.6%
viability, T/C (second compound 94.9 pM, first compound 30 µM): 5.96%
viability, T/C (second compound 0.0003 µM, first compound 0.0949 µM): 11.3%
viability, T/C (second compound 0.0003 µM, first compound 0.3 µM): 2.62%
viability, T/C (second compound 0.0003 µM, first compound 0.949 µM): 33.6%
viability, T/C (second compound 0.0003 µM, first compound 3 µM): 22%
viability, T/C (second compound 0.0003 µM, first compound 9.49 µM): 3.44%
viability, T/C (second compound 0.0003 µM, first compound 30 µM): 6.61%
viability, T/C (second compound 0.000949 µM, first compound 0.0949 µM): 4.82%
viability, T/C (second compound 0.000949 µM, first compound 0.3 µM): 3.59%
viability, T/C (second compound 0.000949 µM, first compound 0.949 µM): 4.37%
viability, T/C (second compound 0.000949 µM, first compound 3 µM): 3.86%
viability, T/C (second compound 0.000949 µM, first compound 9.49 µM): 3.51%
viability, T/C (second compound 0.000949 µM, first compound 30 µM): 3.9%
viability, T/C (second compound 0.003 µM, first compound 0.0949 µM): 2.74%
viability, T/C (second compound 0.003 µM, first compound 0.3 µM): 2.65%
viability, T/C (second compound 0.003 µM, first compound 0.949 µM): 3.06%
viability, T/C (second compound 0.003 µM, first compound 3 µM): 3.24%
viability, T/C (second compound 0.003 µM, first compound 9.49 µM): 3.55%
viability, T/C (second compound 0.003 µM, first compound 30 µM): 3.23%
